Reference: patent US6914045B2, “Glycopeptide antibiotics” (Wyeth Holdings Corporation, priority 2001, dated 2005)
≈ marks a conversion by molar mass, not a printed value.

Experiments:
Experiment in all cases: in vitro antibacterial evaluation, MIC by broth dilution
Type in all cases: cell-based
[1] = tested on: Enterococcus sp.; conditions: broth dilution, 18 hours at 35° C.
Method in brief: (§1)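 MIC = lowest antibiotic concentration preventing visible growth; inoculum 5×10^5 CFU/mL; drug range 64-0.06 μg/mL; Muller-Hinton II […]; NCCLS M7-A2 guidance.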

[2] = tested on: Escherichia coli; conditions: 18 hours at 35° C.; for MIC Escherichia coli (ATCC 25922): strain ATCC 25922
Method in brief: as §1

[3] = tested on: Staphylococcus sp.; conditions: broth dilution, 18 hours at 35° C.
Method in brief: as §1

[4] = tested on: Streptococcus sp.; conditions: broth dilution, 18 hours at 35° C.
Method in brief: as §1

[5] = Enterococcus faecalis (ATCC 29212)
[6] = Enterococcus faecalis (GC 2242)
[7] = Enterococcus faecalis (GC 4552)
[8] = Enterococcus faecalis (GC 4553)
[9] = Enterococcus faecalis (GC 4554)
[10] = inoculum 5×10^5 CFU/mL, strain GC 1131
[11] = Streptococcus agalactiae (GC 4564)
[12] = Streptococcus pneumoniae (GC 4565)

CC(c1ccccc1)C1NC(=O)CNC(=O)C(CO)NC(=O)C(C(O)C2CNC(=N)N2C2OC(CO)C(O)C(O)C2O)NC(=O)C(C(O)C2CNC(=N)N2)NC(=O)C(Cc2ccc(OC3OC(CO)C(OC4OC5COC(CC6CCCCC6)OC5C(O)C4O)C(O)C3O)cc2)NC1=O (stereo not shown) [Example 122]
MIC Enterococcus avium (GC 4558) ([1]; Enterococcus avium (GC 4558)): 2 µg/mL (≈ 1.43 µM)
MIC Enterococcus faecalis (ATCC 29212) [1, 5]: 2 µg/mL (≈ 1.43 µM)
MIC Enterococcus faecalis (GC 2242) [1, 6]: 2 µg/mL (≈ 1.43 µM)
MIC Enterococcus faecalis (GC 2691) ([1]; Enterococcus faecalis (GC 2691)): 2 µg/mL (≈ 1.43 µM)
MIC Enterococcus faecalis (GC 3059) ([1]; Enterococcus faecalis (GC 3059)): 2 µg/mL (≈ 1.43 µM)
MIC Enterococcus faecalis (GC 4552) [1, 7]: 2 µg/mL (≈ 1.43 µM)
MIC Enterococcus faecalis (GC 4553) [1, 8]: 4 µg/mL (≈ 2.85 µM)
MIC Enterococcus faecalis (GC 4554) [1, 9]: 2 µg/mL (≈ 1.43 µM)
MIC Enterococcus faecalis (GC 6189) ([1]; Enterococcus faecalis (GC 6189)): 2 µg/mL (≈ 1.43 µM)
MIC Enterococcus faecium (GC 2243) ([1]; Enterococcus faecium (GC 2243)): 2 µg/mL (≈ 1.43 µM)
MIC Enterococcus faecium (GC 4556) ([1]; Enterococcus faecium (GC 4556)): 2 µg/mL (≈ 1.43 µM)
MIC Enterococcus faecium (GC 4557) ([1]; Enterococcus faecium (GC 4557)): 4 µg/mL (≈ 2.85 µM)
MIC Enterococcus faecalis (ATCC 29212) ([1]; strain ATCC 29212): 2 µg/mL (≈ 1.43 µM)
MIC Enterococcus faecalis (GC 2242) ([1]; strain GC 2242): 2 µg/mL (≈ 1.43 µM)
MIC Enterococcus faecium (GC 2243) ([1]; strain GC 2243): 2 µg/mL (≈ 1.43 µM)
MIC Enterococcus faecalis (GC 2691) ([1]; strain GC 2691): 2 µg/mL (≈ 1.43 µM)
MIC Enterococcus faecalis (GC 3059) ([1]; strain GC 3059): 2 µg/mL (≈ 1.43 µM)
MIC Enterococcus faecalis (GC 4552) ([1]; strain GC 4552): 2 µg/mL (≈ 1.43 µM)
MIC Enterococcus faecalis (GC 4553) ([1]; strain GC 4553): 4 µg/mL (≈ 2.85 µM)
MIC Enterococcus faecalis (GC 4554) ([1]; strain GC 4554): 2 µg/mL (≈ 1.43 µM)
MIC Enterococcus faecium (GC 4556) ([1]; strain GC 4556): 2 µg/mL (≈ 1.43 µM)
MIC Enterococcus faecium (GC 4557) ([1]; strain GC 4557): 4 µg/mL (≈ 2.85 µM)
MIC Enterococcus avium (GC 4558) ([1]; strain GC 4558): 2 µg/mL (≈ 1.43 µM)
MIC Enterococcus faecalis (GC 6189) ([1]; strain GC 6189): 2 µg/mL (≈ 1.43 µM)
MIC Escherichia coli (ATCC 25922) [2]: 32 µg/mL (≈ 22.8 µM)
MIC Escherichia coli (GC 4559) ([2]; strain GC 4559): 32 µg/mL (≈ 22.8 µM)
MIC Escherichia coli (GC 4560) ([2]; strain GC 4560): 2 µg/mL (≈ 1.43 µM)
MIC Staphylococcus aureus (ATCC 29213) [3]: 2 µg/mL (≈ 1.43 µM)
MIC Staphylococcus aureus (GC 1131) [3]: 2 µg/mL (≈ 1.43 µM)
MIC Staphylococcus aureus (GC 3051) [3]: 2 µg/mL (≈ 1.43 µM)
MIC Staphylococcus aureus (GC 3053) [3]: 2 µg/mL (≈ 1.43 µM)
MIC Staphylococcus aureus (GC 4541) [3]: 2 µg/mL (≈ 1.43 µM)
MIC Staphylococcus aureus (GC 4542) [3]: 2 µg/mL (≈ 1.43 µM)
MIC Staphylococcus aureus (GC 4544) [3]: 1 µg/mL (≈ 0.713 µM)
MIC Staphylococcus aureus (GC 4545) [3]: 2 µg/mL (≈ 1.43 µM)
MIC Staphylococcus aureus (GC 1131) [3, 10]: 2 µg/mL (≈ 1.43 µM)
MIC Staphylococcus aureus (ATCC 29213) ([3]; strain ATCC 29213): 2 µg/mL (≈ 1.43 µM)
MIC Staphylococcus aureus (GC 3051) ([3]; strain GC 3051): 2 µg/mL (≈ 1.43 µM)
MIC Staphylococcus aureus (GC 3053) ([3]; strain GC 3053): 2 µg/mL (≈ 1.43 µM)
MIC Staphylococcus aureus (GC 4541) ([3]; strain GC 4541): 2 µg/mL (≈ 1.43 µM)
MIC Staphylococcus aureus (GC 4542) ([3]; strain GC 4542): 2 µg/mL (≈ 1.43 µM)
MIC Staphylococcus aureus-SMITH (GC 4543) ([3]; strain GC 4543): 2 µg/mL (≈ 1.43 µM)
MIC Staphylococcus aureus (GC 4544) ([3]; strain GC 4544): 1 µg/mL (≈ 0.713 µM)
MIC Staphylococcus aureus (GC 4545) ([3]; strain GC 4545): 2 µg/mL (≈ 1.43 µM)
MIC Staphylococcus haemolyticus (GC 4546) ([3]; strain GC 4546): 2 µg/mL (≈ 1.43 µM)
MIC Coagulase Negative Staphylococcus (GC 4547) ([3]; strain GC 4547): 2 µg/mL (≈ 1.43 µM)
MIC Coagulase Negative Staphylococcus (GC 4548) ([3]; strain GC 4548): 1 µg/mL (≈ 0.713 µM)
MIC Coagulase Negative Staphylococcus (GC 4549) ([3]; strain GC 4549): 1 µg/mL (≈ 0.713 µM)
MIC Coagulase Negative Staphylococcus (GC 4551) ([3]; strain GC 4551): 2 µg/mL (≈ 1.43 µM)
MIC Coagulase Negative Staphylococcus (GC 6257) ([3]; strain GC 6257): 1 µg/mL (≈ 0.713 µM)
MIC Staphylococcus aureus-SMITH (GC 4543) ([3]; strain SMITH GC 4543): 2 µg/mL (≈ 1.43 µM)
MIC Streptococcus agalactiae (GC 4564) [4, 11]: 0.12 µg/mL (≈ 0.0855 µM)
MIC Streptococcus pneumoniae (ATCC 6301) ([4]; Streptococcus pneumoniae (ATCC 6301)): <0.06 µg/mL
MIC Streptococcus pneumoniae (GC 1894) ([4]; Streptococcus pneumoniae (GC 1894)): <0.06 µg/mL
MIC Streptococcus pneumoniae (GC 4565) [4, 12]: 0.12 µg/mL (≈ 0.0855 µM)
MIC Streptococcus pyogenes (GC 4563) ([4]; Streptococcus pyogenes (GC 4563)): <0.06 µg/mL
MIC Streptococcus pneumoniae (ATCC 6301) ([4]; strain ATCC 6301): <0.06 µg/mL
MIC Streptococcus pneumoniae (GC 1894) ([4]; strain GC 1894): <0.06 µg/mL
MIC Streptococcus pyogenes (GC 4563) ([4]; strain GC 4563): <0.06 µg/mL
MIC Streptococcus agalactiae (GC 4564) ([4]; strain GC 4564): 0.12 µg/mL (≈ 0.0855 µM)
MIC Streptococcus pneumoniae (GC 4565) ([4]; strain GC 4565): 0.12 µg/mL (≈ 0.0855 µM)

CC(c1ccccc1)C1NC(=O)CNC(=O)C(CO)NC(=O)C(C(O)C2CNC(=N)N2C2OC(CO)C(O)C(O)C2O)NC(=O)C(C(O)C2CNC(=N)N2)NC(=O)C(Cc2ccc(OC3OC(CO)C(OC4OC5COC(CC(C)(C)C)OC5C(O)C4O)C(O)C3O)cc2)NC1=O (stereo not drawn) [Example 110, Cyclo[glycyl-β-methylphenylalanyl-O-[4-O-[4,6-O-(3,3-dimethylbutylidene)hexopyranosyl]-hexopyranosyl]tyrosyl-3-(2-iminoimidazolidin-4-yl)seryl-3-(3-hexopyranosyl-2-iminoimidazolidin-4-yl)serylseryl]]
MIC Enterococcus avium (GC 4558) ([1]; Enterococcus avium (GC 4558)): 4 µg/mL (≈ 2.9 µM)
MIC Enterococcus faecalis (ATCC 29212) [1, 5]: 4 µg/mL (≈ 2.9 µM)
MIC Enterococcus faecalis (GC 2242) [1, 6]: 2 µg/mL (≈ 1.45 µM)
MIC Enterococcus faecalis (GC 4552) [1, 7]: 4 µg/mL (≈ 2.9 µM)
MIC Enterococcus faecalis (GC 4553) [1, 8]: 4 µg/mL (≈ 2.9 µM)
MIC Enterococcus faecalis (GC 4554) [1, 9]: 2 µg/mL (≈ 1.45 µM)
MIC Enterococcus faecium (GC 2243) ([1]; Enterococcus faecium (GC 2243)): 4 µg/mL (≈ 2.9 µM)
MIC Enterococcus faecium (GC 4556) ([1]; Enterococcus faecium (GC 4556)): 2 µg/mL (≈ 1.45 µM)
MIC Enterococcus faecium (GC 4557) ([1]; Enterococcus faecium (GC 4557)): 2 µg/mL (≈ 1.45 µM)
MIC Enterococcus faecalis (ATCC 29212) ([1]; strain ATCC 29212): 4 µg/mL (≈ 2.9 µM)
MIC Enterococcus faecalis (GC 2242) ([1]; strain GC 2242): 2 µg/mL (≈ 1.45 µM)
MIC Enterococcus faecium (GC 2243) ([1]; strain GC 2243): 4 µg/mL (≈ 2.9 µM)
MIC Enterococcus faecalis (GC 4552) ([1]; strain GC 4552): 4 µg/mL (≈ 2.9 µM)
MIC Enterococcus faecalis (GC 4553) ([1]; strain GC 4553): 4 µg/mL (≈ 2.9 µM)
MIC Enterococcus faecalis (GC 4554) ([1]; strain GC 4554): 2 µg/mL (≈ 1.45 µM)
MIC Enterococcus faecium (GC 4556) ([1]; strain GC 4556): 2 µg/mL (≈ 1.45 µM)
MIC Enterococcus faecium (GC 4557) ([1]; strain GC 4557): 2 µg/mL (≈ 1.45 µM)
MIC Enterococcus avium (GC 4558) ([1]; strain GC 4558): 4 µg/mL (≈ 2.9 µM)
MIC Escherichia coli (ATCC 25922) [2]: 64 µg/mL (≈ 46.5 µM)
MIC Coagulase Negative Staphylococcus (GC 4547) [3]: 1 µg/mL (≈ 0.726 µM)
MIC Coagulase Negative Staphylococcus (GC 4548) [3]: 1 µg/mL (≈ 0.726 µM)
MIC Coagulase Negative Staphylococcus (GC 4549) [3]: 1 µg/mL (≈ 0.726 µM)
MIC Coagulase Negative Staphylococcus (GC 4551) [3]: 1 µg/mL (≈ 0.726 µM)
MIC Coagulase Negative Staphylococcus (ID-3941) [3]: 1 µg/mL (≈ 0.726 µM)
MIC Staphylococcus aureus (ATCC 29213) [3]: 1 µg/mL (≈ 0.726 µM)
MIC Staphylococcus aureus (GC 1131) [3]: 1 µg/mL (≈ 0.726 µM)
MIC Staphylococcus aureus (GC 4541) [3]: 1 µg/mL (≈ 0.726 µM)
MIC Staphylococcus aureus (GC 4542) [3]: 1 µg/mL (≈ 0.726 µM)
MIC Staphylococcus aureus (GC 4544) [3]: 2 µg/mL (≈ 1.45 µM)
MIC Staphylococcus aureus (GC 4545) [3]: 1 µg/mL (≈ 0.726 µM)
MIC Staphylococcus aureus-SMITH (GC 4543) [3]: 1 µg/mL (≈ 0.726 µM)
MIC Staphylococcus haemolyticus (GC 4546) [3]: 1 µg/mL (≈ 0.726 µM)
MIC Staphylococcus aureus (GC 1131) [3, 10]: 1 µg/mL (≈ 0.726 µM)
MIC Staphylococcus aureus (ATCC 29213) ([3]; strain ATCC 29213): 1 µg/mL (≈ 0.726 µM)
MIC Staphylococcus aureus (GC 4541) ([3]; strain GC 4541): 1 µg/mL (≈ 0.726 µM)
MIC Staphylococcus aureus (GC 4542) ([3]; strain GC 4542): 1 µg/mL (≈ 0.726 µM)
MIC Staphylococcus aureus (GC 4544) ([3]; strain GC 4544): 2 µg/mL (≈ 1.45 µM)
MIC Staphylococcus aureus (GC 4545) ([3]; strain GC 4545): 1 µg/mL (≈ 0.726 µM)
MIC Staphylococcus haemolyticus (GC 4546) ([3]; strain GC 4546): 1 µg/mL (≈ 0.726 µM)
MIC Coagulase Negative Staphylococcus (GC 4547) ([3]; strain GC 4547): 1 µg/mL (≈ 0.726 µM)
MIC Coagulase Negative Staphylococcus (GC 4548) ([3]; strain GC 4548): 1 µg/mL (≈ 0.726 µM)
MIC Coagulase Negative Staphylococcus (GC 4549) ([3]; strain GC 4549): 1 µg/mL (≈ 0.726 µM)
MIC Coagulase Negative Staphylococcus (GC 4551) ([3]; strain GC 4551): 1 µg/mL (≈ 0.726 µM)
MIC Coagulase Negative Staphylococcus (ID-3941) ([3]; strain ID-3941): 1 µg/mL (≈ 0.726 µM)
MIC Staphylococcus aureus-SMITH (GC 4543) ([3]; strain SMITH GC 4543): 1 µg/mL (≈ 0.726 µM)
MIC Streptococcus agalactiae (GC 4564) [4, 11]: <0.5 µg/mL
MIC Streptococcus pneumoniae (GC 4565) [4, 12]: <0.5 µg/mL
MIC Streptococcus pyogenes (ID-3187) ([4]; Streptococcus pyogenes (ID-3187)): <0.5 µg/mL
MIC Streptococcus agalactiae (GC 4564) ([4]; strain GC 4564): <0.5 µg/mL
MIC Streptococcus pneumoniae (GC 4565) ([4]; strain GC 4565): <0.5 µg/mL
MIC Streptococcus pyogenes (ID-3187) ([4]; strain ID-3187): <0.5 µg/mL
